We go through 24 compounds from US5141953A, “Purpuromycin for the treatment of vaginal infections and pharmaceutical dosage forms for said use” (Gruppo Lepetit S.p.A., priority 1989, dated 1992).

Converted amounts (≈) assume the structure as drawn. Where two headings read alike, the source gives them in different places.

The subject of data set [1] is Candida albicans. The note with it: cited from earlier work.
The test system of data set [2] is Gardnerella vaginalis. In words: MIC against Gardnerella vaginalis (ATCC 14018 and 11 clinical isolates), standard two-fold dilution. It is filed as cell-based. The note with it: for NUMBER OF STRAINS WITH MIC OF 8: MIC 8 mcg/ml; for NUMBER OF STRAINS WITH MIC OF 16: MIC 16 mcg/ml; for NUMBER OF STRAINS WITH MIC OF 32: MIC 32 mcg/ml; for NUMBER OF STRAINS WITH MIC OF 64: MIC 64 mcg/ml; for NUMBER OF STRAINS WITH MIC OF 4: MIC 4 mcg/ml.
Experimental: The strains were grown on Casman medium (Difco) plus 5% (v/v) whole rabbit blood and 0.15 (v/v) lysed rabbit blood. Inoculum size: approximately 10^4 colony forming units per spot. Incubation in an anaerobic hood: 48 hours at 37° C.

Data set [3] relates to Gardnerella vaginalis. The note with it: cited from earlier work.
Data set [4] relates to yeasts. The note with it: cited from earlier work.
Data set [5] relates to Trichomonas vaginalis. The note with it: cited from earlier work.
For data set [6], the system named is Bacteroides fragilis ATCC 23745. The data set can be described thus: MIC against Bacteroides fragilis, two-fold dilution method. It is filed as cell-based. The conditions noted are these: ATCC23745, anaerobic, 48 hours at 37° C., Wilkins-Chalgren broth, approximately 10^4 CFU/ml. The procedure:
A further experiment representative of the activity of purpuromycin against other anaerobic bacteria which are usually associated with infectious vaginitis utilized Bacteroides fragilis ATCC […] as the test microorganism. The experiment was carried out by the two-fold dilution method in microliter plates using Wilkins-Chalgren broth (Difco).
Inoculum size: approximately 10^4 colony forming units/ml. Incubation in an anerobic hood: 48 hours at 37° C. Purpuromycin was dissolved in DMSO and was added to the culture medium as above.

The subject of data set [7] is Candida albicans strain SKF 2270. In words: Topical treatment of yeast vaginal infection in ovariectomized rats. It is filed as in vivo, rat. The note with it: topical intravaginal; for Mean log10 CFU/smear sample ± SD: twice daily for three days, untreated 3.43 ± 0.55, vehicle 3.74 ± 0.60. On the procedure:
The effectiveness of purpuromycin in the topical treatment of yeast vaginal infection was also tested in ovariectomized rats (Charles River) treated subcutaneously with 4 mg of estradiol benzoate approximately two weeks after ovariectomy. Five days later they were inoculated intravaginally with approximately 5×10^6 colony forming units (CFU) of Candida albicans strain SKF 2270 in 25 microliters of Nutrient Broth (no.2, Oxoid) containing 15% (vol/vol) of glycerol. Topical intravaginal therapy was twice daily for three days, starting one day after infection, with 100 microliters of a purpuromycin suspension in a mixture of 10:90 DMSO-polyethylene glycol 400, corresponding to 2 or 5 mg/rat/treatment. The day after the last treatment, vaginal smear samples (calibrated 10 microliter loops) were diluted and plated for viable organism counts on Sabouraud agar (Difco). Each group contained 10 animals.

Data set [8] relates to Gram-positive bacteria. The conditions noted are these: in vitro; cited from earlier work.
Data set [9] is described as follows: Solubility. It is filed as physicochemical.
Data set [10] relates to fungi, including filamentous fungi (e.g., Trichophyton mentagrophytes) and yeasts e.g., Candida albicans. The note with it: in vitro; cited from earlier work.
For data set [11], the system named is Gram-negative bacteria. The note with it: in vitro; cited from earlier work.
[12] abbreviates: 12 strains tested, anaerobic, 48 hours at 37° C.
Setting [13] is: MIC >128 mcg/ml, 12 strains tested, anaerobic, 48 hours at 37° C.

In the case of `C[C@@H]1[C@H](O)[C@@H](C)/C=C/C=C/C=C/C=C/C=C/C=C/C=C/[C@H](O[C@@H]2O[C@H](C)[C@@H](O)[C@H](N)[C@@H]2O)C[C@@H]2O[C@](O)(C[C@@H](O)C[C@@H](O)[C@H](O)CC[C@@H](O)C[C@@H](O)CC(=O)O[C@H]1C)C[C@H](O)[C@H]2C(=O)O` [Amphotericin B], the “effectiveness against Candida albicans infections” value (“effectiveness” for short) in data set [1] is on record as “effective”.

As for `Clc1ccccc1C(c1ccccc1)(c1ccccc1)n1ccnc1` [Clotrimazole], in data set [2] (setting [12]), the “NUMBER OF STRAINS WITH MIC OF 8” value is given as 2 strains, the “NUMBER OF STRAINS WITH MIC OF 16” value is on record as 1 strains, the “NUMBER OF STRAINS WITH MIC OF 32” value is recorded as 2 strains and the “NUMBER OF STRAINS WITH MIC OF 64” value came out at 5 strains. Further, in data set [2] (setting [13]), the “NUMBER OF STRAINS WITH MIC OF >128” value came to 2 strains. Moreover, the “effectiveness” value in data set [1] is “effective”.

With `CC(=O)N1CCN(c2ccc(OCC3COC(Cn4ccnc4)(c4ccc(Cl)cc4Cl)O3)cc2)CC1` (centres unmarked) [Ketoconazole], the “effectiveness” value in [1] was “effective”.

For the compound `Cc1ncc([N+](=O)[O-])n1CCO` [Metronidazole], the “activity against Gardnerella vaginalis” value in data set [3] is “active”. For the same compound, in data set [2] (setting [12]), the “NUMBER OF STRAINS WITH MIC OF 4” value was 1 strains, the “NUMBER OF STRAINS WITH MIC OF 8” value came out at 3 strains, the “NUMBER OF STRAINS WITH MIC OF 16” value came to 4 strains and the “NUMBER OF STRAINS WITH MIC OF 64” value turned out to be 1 strains. The “NUMBER OF STRAINS WITH MIC OF 128” value in data set [2] (MIC 128 mcg/ml, 12 strains tested, anaerobic, 48 hours at 37° C.) was determined as 3 strains. Besides, in data set [4], the activity against yeasts result is on record as “not active”. Also, the “activity against Trichomonas vaginalis” value in [5] is given as “active”.

Take `Clc1ccc(COC(Cn2ccnc2)c2ccc(Cl)cc2Cl)c(Cl)c1` (centres unmarked) [Miconazole]: the MIC in data set [2] (Gardnerella vaginalis, strains resistant to the agent, read-out: MIC (on resistant strains)) was 128 µg/mL (≈ 308 µM). Besides, in data set [2] (setting [12]), the “NUMBER OF STRAINS WITH MIC OF 4” value is reported as 1 strains, the “NUMBER OF STRAINS WITH MIC OF 8” value is listed as 7 strains and the “NUMBER OF STRAINS WITH MIC OF 32” value stood at 2 strains. In addition, the “NUMBER OF STRAINS WITH MIC OF >128” value in data set [2] (setting [13]) is 2 strains. For the same compound, in data set [1], the “effectiveness” value is listed as “effective”.

On to `C[C@@H]1[C@H](O)[C@@H](C)/C=C/C=C/CC/C=C/C=C/C=C/C=C/C(O[C@H]2O[C@H](C)[C@@H](O)[C@H](N)[C@@H]2O)CC2O[C@](O)(CC(O)C(O)CCC(O)CC(O)CC(O)CC(=O)O[C@H]1C)CC(O)C2C(=O)O` (some centres unmarked) [Nystatin], for which the “NUMBER OF STRAINS WITH MIC OF >128” value in data set [2] is 12 strains. Further, the “effectiveness” value in data set [1] is “effective”.

With `COC(=O)c1cc2cc3c(c(O)c2c(=O)o1)OC1(Cc2c(O)c4c(c(O)c2O1)C(=O)C(OC)=CC4=O)CC3O` (centres unmarked) [Purpuromycin], the MIC in [2] (48 h, all 12 Gardnerella vaginalis strains, read-out: concentration that inhibits the growth of all tested strains) amounted to 8 µg/mL (≈ 14.9 µM); in [6] it was 0.25 µg/mL (≈ 0.464 µM). The “NUMBER OF STRAINS WITH MIC OF 8” value in data set [2] (setting [12]) is 12 strains. The “activity on strains resistant to metronidazole, nystatin and miconozole” value in [2] (resistant strains) is listed as “active”. The “Mean log10 CFU/smear sample ± SD” value amounted to 2.00 ± 0.75 log10 CFU/smear sample in [7] (2 mg/rat/treatment) and 2.28 ± 0.78 log10 CFU/smear sample in data set [7] (5 mg/rat/treatment, *P <0.01 vs group 1 controls). Moreover, the “numbers of viable yeast cells/sample” value in data set [7] (2 or 5 mg/rat/treatment) is “significantly reduced”. For the same compound, in data set [8], the “activity against Gram-positive bacteria” value is “active”. Also, the “solubility in lower alkanols” value in data set [9] (lower alkanols) is on record as “practically unsoluble”. In addition, the solubility in water result in data set [9] (water) is listed as “practically unsoluble”. In [10], the activity against fungi entry is on record as “active”. Besides, in data set [11], the “activity against Gram-negative bacteria” value is “active”.

As for `CC1(C)S[C@@H]2[C@H](NC(=O)[C@H](N)c3ccccc3)C(=O)N2[C@H]1C(=O)O` [ampicillin], the “activity against Gardnerella vaginalis” value in data set [3] is “active”.

On to `CC1=C(C(=O)O)N2C(=O)[C@@H](NC(=O)[C@H](N)c3ccccc3)[C@H]2SC1` [cefalexin], for which the “activity against Gardnerella vaginalis” value in data set [3] is “active”.

Take `CO[C@@]1(NC(=O)Cc2cccs2)C(=O)N2C(C(=O)O)=C(COC(N)=O)CS[C@@H]21` [cefoxitin]: in data set [3], the “activity against Gardnerella vaginalis” value is “active”.

In the case of `O=C(Cc1cccs1)N[C@@H]1C(=O)N2C(C(=O)[O-])=C(C[n+]3ccccc3)CS[C@H]12` [cephaloridine], the “activity against Gardnerella vaginalis” value in [3] is on record as “active”.

With `O=C(N[C@H](CO)[C@H](O)c1ccc([N+](=O)[O-])cc1)C(Cl)Cl` [chloramphenicol], the “activity against Gardnerella vaginalis” value in data set [3] is on record as “active”.

As to `CCC[C@@H]1C[C@@H](C(=O)N[C@@H]([C@H]2O[C@H](SC)[C@H](O)[C@@H](O)[C@H]2O)[C@H](C)Cl)N(C)C1` [clindamycin], in data set [3], the “activity against Gardnerella vaginalis” value is reported as “active”.

With `Clc1ccc(COC(Cn2ccnc2)c2ccc(Cl)cc2Cl)cc1` (centres unmarked) [econozole], the “effectiveness” value in data set [1] is reported as “effective”.

Turning to `CC[C@H]1OC(=O)[C@H](C)[C@@H](O[C@H]2C[C@@](C)(OC)[C@@H](O)[C@H](C)O2)[C@H](C)[C@@H](O[C@@H]2O[C@H](C)C[C@H](N(C)C)[C@H]2O)[C@](C)(O)C[C@@H](C)C(=O)[C@H](C)[C@@H](O)[C@]1(C)O` [erythromycin], the “activity against Gardnerella vaginalis” value in [3] is on record as “active”.

Consider `OC(Cn1cncn1)(Cn1cncn1)c1ccc(F)cc1F` [fluconazole], for which the “effectiveness” value in [1] is “effective”.

Consider `CN(C)c1ccc(C(=C2C=CC(=[N+](C)C)C=C2)c2ccc(N(C)C)cc2)cc1` [gentian violet], for which the “effectiveness” value in data set [1] was “effective”.

For the compound `CC1(C)S[C@@H]2[C@H](NC(=O)Cc3ccccc3)C(=O)N2[C@H]1C(=O)O` [penicillin G], the “activity against Gardnerella vaginalis” value in data set [3] is recorded as “active”.

Take `CN[C@@H]1[C@H](O)[C@H](NC)[C@H]2O[C@@]3(O)C(=O)C[C@@H](C)O[C@H]3O[C@@H]2[C@H]1O` [spectinomycin]: in [3], the “activity against Gardnerella vaginalis” value is on record as “active”.

On to `Cc1cc(NS(=O)(=O)c2ccc(N)cc2)no1` [sulfamethoxazole], for which the “activity against Gardnerella vaginalis” value in data set [3] is given as “active”.

Take `CN(C)C1C(=O)C(C(N)=O)=C(O)C2(O)C(=O)C3=C(O)c4c(O)cccc4C(C)(O)C3CC12` (centres unmarked) [tetracycline]: the “activity against Gardnerella vaginalis” value in data set [3] is listed as “active”.

For the compound `CCS(=O)(=O)CCn1c([N+](=O)[O-])cnc1C` [tinidazole], in data set [5], the “activity against Trichomonas vaginalis” value is reported as “active”.

In the case of candicidin, the “effectiveness” value in [1] is reported as “effective”.

Turning to gentamicin, the “activity against Gardnerella vaginalis” value in data set [3] is “active”.
